Reference: the supplement of paper PMC8253809

Assays:
Experiment in all cases: growth inhibition relative to DMSO (0) and positive control (1) (fraction); higher = more growth inhibition
DIPGX29 [1] = system: DIPGX29 (H3.3 K27M diffuse intrinsic pontine glioma line)
Protocol: (§1)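 Single-agent arm (compound 2 only) of the paxalisib / mirdametinib dose-matrix plates, 7 days, adherent 384-well. CellTiter-Glo RLU was normalised to fractional activity between DMSO (0) and the positive control (1).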

iASTRO = system: iASTRO (astrocyte control)
Protocol: as §1

HGGX42 = system: HGGX42 (H3.3 G34R paediatric high-grade glioma line)
Protocol: as §1

DIPGX37 = system: DIPGX37 (H3.3 K27M diffuse intrinsic pontine glioma line)
Protocol: as §1

HABS = system: HABS (astrocyte control)
Protocol: as §1

DIPGX7 = system: DIPGX7 (H3.3 K27M diffuse intrinsic pontine glioma line)
Protocol: as §1

HGGX6 = system: HGGX6 (H3.3 G34R paediatric high-grade glioma line)
Protocol: as §1

DIPGX29 [2] = system: DIPGX29; remark: listed apart in the source
Protocol: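 Single-agent arm (compound 1 only) of the paxalisib / mirdametinib dose-matrix plates, 7 days, adherent 384-well. CellTiter-Glo RLU was normalised to fractional activity between DMSO (0) and the positive control (1).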

CC1(C)OCCn2c1nc1c(N3CCOCC3)nc(-c3cnc(N)nc3)nc12 [GDC0084]
growth inhibition
Conditions | 0.009766 µM | 0.01953 µM | 0.03906 µM | 0.07812 µM | 0.15625 µM | 0.3125 µM | 0.625 µM | 1.25 µM | 5 µM | 20 µM
DIPGX7 | – | – | 0.051 | 0.197 | 0.446 | 0.658 | 0.787 | 0.8579 | 0.9157 | 0.9671
DIPGX29 [1] | – | – | 0.0637 | 0.169 | 0.232 | 0.295 | 0.423 | 0.603 | 0.87 | 0.9389
DIPGX29 [2] | 0.073 | 0.102 | 0.178 | 0.216 | 0.266 | 0.357 | 0.491 | – | – | –
DIPGX37 | – | – | -0.00546 | 0.192 | 0.323 | 0.499 | 0.598 | 0.756 | 0.9558 | 0.99839
HABS | – | – | -0.0282 | 0.105 | 0.153 | 0.193 | 0.29 | 0.463 | 0.807 | 0.9834
HGGX6 | – | – | -0.045 | 0.0144 | 0.106 | 0.211 | 0.329 | 0.486 | 0.741 | 0.872
HGGX42 | – | – | 0.112 | 0.274 | 0.471 | 0.516 | 0.673 | 0.782 | 0.8721 | 0.898
iASTRO | – | – | 0.0361 | 0.0247 | 0.0269 | -0.0092 | -0.0383 | 0.0569 | 0.631 | 0.726
